# Patent US9302014B2, “Cell-penetrating peptides having a central hydrophobic domain” (Medical Research Council, priority 2011, dated 2016)
# Non-standard residues stand in square brackets, D forms with d. No end group written: not given here. Ahx = NCCCCCC(=O)O; βAla = NCCC(=O)O
# Tests used:
# dystrophin [1] = assay: Immunohistochemical staining and quantification of dystrophin in mdx mice after single IV injection; type: in vivo; details: 8 week old mdx mice, single 12.5 mg/kg IV, 2 weeks after injection
# Description: Given the potency of Pip5e-PMO in heart tissue, the aim of altering the sequence of the hydrophobic core (whilst maintaining the 5-aa length) was to identify peptides that might be more efficient at lower doses. These modifications included inversion of the hydrophobic region (Pip6a), substitution of tyrosine by isoleucine (Pip6b), substitution of glutamine in the Pip6a sequence by displacement of the arginine immediately flanking the core in the first arginine-rich flanking region (Pip6e), and a scrambled hydrophobic core sequence (Pip6f). All Pip6 peptide-PMO conjugates were administered to mdx mice as single 12.5 mg/kg intravenous injections via the tail vein and tissues were harvested 2 weeks later and assessed for activity at both RNA and protein levels.
# Immunohistochemical staining quantification (FIGS. 34a, b) was performed as previously described [Malerba, A., et al., Chronic systemic therapy with low-dose morpholino oligomers ameliorates the pathology and normalizes locomotor behavior in mdx mice. Mol Ther, 2011. 19(2): p. 345-54; Arechavala-Gomeza, V., et al., Immunohistological intensity measurements as a tool to assess sarcolemma-associated protein expression. Neuropathol Appl Neurobiol, 2010. 36(4): p. 265-74.] and was achieved by taking 4 representative frames of the dystrophin staining and correlating this with laminin staining for each section (n=3) of the quadriceps, diaphragm and heart for each peptide-PMO treatment. Untreated mdx and treated mdx mice were normalised to C57BL10 mice. This method allows comparison of the staining intensity of dystrophin at the sarcolemma relative to laminin for each treatment group. Intensity ratios are normalised to C57BL10 samples and each region of interest at the sarcolemma (120 regions for each treatment group) is plotted on a scatter graph. […]
# Transverse sections of tissue samples were cut (8 μm thick) for the examination of dystrophin expression. For dystrophin visualisation and quantification, sections were co-stained with rabbit-anti-dystrophin (Abcam) and rat anti-laminin (Sigma), and detected by goat-anti-rabbit IgG Alexa 594 and goat-anti-rat IgG 488 secondary antibodies respectively (Invitrogen). […] Quantitative immunohistochemistry was performed as previously described [Malerba, A., et al., Chronic systemic therapy with low-dose morpholino oligomers ameliorates the pathology and normalizes locomotor behavior in mdx mice. […] For quantification, 4 representative frames of the dystrophin and correlating laminin were taken for each section (n=3) of the quadriceps, diaphragm and heart for each treatment. […] The minimum and maximum fluorescence intensity for 120 regions were recorded for each treatment. […]
# dystrophin [2] = assay: Western blot quantification of dystrophin protein in mdx mouse muscles; type: in vivo; details: lead PPMO comparison; 8 week old mdx mice, 12.5 mg/kg IV, 2 weeks
# Experimental: The RTPCR representative images (FIG. 34d) illustrate high exon skipping efficiency in all tissues analysed. This is better shown by Real Time PCR (qRT-PCR) results for the quadriceps, diaphragm and heart (FIG. 34c). The delta 23 transcript is normalised against ‘total dystrophin’ for each muscle group (n=3). […] Western blots (FIG. 34e) were performed on the tissues of each mouse and were quantified against a 50% and 10% C57BL10 control.
# Four and a half month old to 5½ month old mdx mice were used in these experiments (n=3). The experiments were carried out in the Biomedical Sciences Unit, University of Oxford according to procedures authorised by the UK Home Office. […]
# Control and treated muscle samples were homogenised in lysis buffer comprising 75 mM Tris-HCl (pH 6.5) and 10% Sodium Dodecyl Sulphate complemented with 5% 2-mercaptoethanol. […] Protein levels were measured by Bradford assay (Sigma) and quantified using BSA standards. […] Primary antibody was detected by binding of horseradish peroxidise-conjugated anti-mouse IgG with lumigen. Western blots were imaged (LiCOR Biosciences) and analysed using the Odyssey imaging system.
# The dystrophin protein level in PPMO treated mdx muscles was quantified by western blot analysis. The density of the dystrophin band was quantified using Licor software and vinculin was used as the loading control. […]
substance,measurement,setting,value
Pip9d2: Pip9 series peptide (SEQ ID Nos 320-328) conjugated to PMODMD (R[Ahx]RR[βAla]RFQILY[βAla]R[Ahx]R[βAla]; also: conjugated to PMO (PMODMD)),dystrophin expression in the heart,dystrophin [1],negligible dystrophin production
same,dystrophin protein level by western blot (vinculin loading control),dystrophin [2],negligible dystrophin production
